{"source": "paper PMC6627374", "about": "“Effects of the Pentapeptide P33 on Memory and Synaptic Plasticity in APP/PS1 Transgenic Mice: A Novel Mechanism Presenting the Protein Fe65 as a Target” (International Journal of Molecular Sciences, 2019)", "molecular_target": "T1, Fe65-WW domain (WW domain of Fe65) (Homo sapiens, UniProt O00213)", "T1 construct": "made in house; host or cells: chemical solid-phase peptide synthesis (Fmoc, Rink Amide AM resin); no expression host", "T1 sequence (O00213 253-285 limits assumed)": "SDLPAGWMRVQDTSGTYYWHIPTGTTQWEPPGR", "assay": "ITC binding to Fe65-WW", "parameters": "species or system human and mouse (WW domain identical)", "details": "310 K, PBS pH 7.4, Fe65-WW 83.5 μM in cell, PPPPP 1.056 mM in syringe (control)", "protocol": "Synthesis of acetyl-Fe65-WW, acetyl-Pin1-WW, and the control PPPPP (structures involved in Figure 2) was carried out on a Rink Amide AM (0.3 mmol∙g^−1) resin using Fmoc chemistry and activation with HATU in the presence of DIPEA. Cleavage was achieved by a treatment with TFA/H2O/triisopropylsilane/1,4-dithio-DL-threitol/phenol (90:5:3:1:1) at room temperature (RT). TFA was removed in vacuo, the peptides were then precipitated using cold, dry diethyl-ether, dissolved in ACN/H2O and lyophilized.\nIsothermal titrations were performed using a Microcal VP-ITC (Malvern Instruments, Malvern, UK) microcalorimeter. Binding experiments were carried out in degassed phosphate-buffered saline (PBS) at pH 7.4. The concentrations of Fe65-WW and Pin1-WW were normalized for the peptide contents. In one titration experiment, 10-μL portions of the ligand-containing solution (P33 or PPPPP) were injected from a computer-controlled 300-μL microsyringe at intervals of 300 s into the solution of the WW domain (Fe65-WW or Pin1-WW), dissolved in the same buffer as for the ligand. The rev of the microsyringe was set to 307 rpm. Measurements were repeated twice at 310 K. The starting concentrations of Fe65-WW and Pin1-WW in the cell were 83.5 and 81.4 μM, respectively, and the concentrations of the stock solutions containing P33 or PPPPP in the syringe were 1.006 and 1.056 mM, respectively. Control experiments were performed by injecting P33 or PPPPP into the cell containing plain buffer without the WW domain, with results achieved via subtracting the dilution heats from those measured in the presence of the WW domain."}
{"substance": "PPPPP [control pentapeptide PPPPP, reference compound]", "values": [{"measurement": "binding to Fe65-WW (in words)", "value": "no binding between the Fe65-WW and the pentapeptide could be observed"}]}
